Patent US20210338782A1, “STORAGE STABLE SOMATOSTATIN-DOPAMINE CHIMERIC COMPOUNDS AND SALT FORMS THEREOF” (Cydan II, Inc., priority 2019, published 2021)
“Also recorded” adds a separate entry of the source. Where a name gives a salt, the structure may show the parent alone.

Assays:
Type in all cases: physicochemical
[1] = Thermostability of alternative salt forms of lanreotide and TBR-760 (UPLC); conditions: for compound degraded: 4 weeks at 60° C. and ambient humidity; for thermostability in words: increasing temperature and humidity (25° C./60% RH, 40° C./75% RH, 60° C.) up to 4 weeks
Description: (§1) Each TBR-760 salt was further evaluated for thermolytic stability over time by setting up three different exposure conditions (25° C. at 60% relative humidity (RH); 40° C. at 75% RH; or 60° C. with open and closed container systems (open dish/closed dish). Approximately 50 mg of each salt form was weighed in a nitrogen-flushed glove box for use in the studies. All samples were stored at −20° C. in a good laboratory practice (GLP) freezer both before and after exposure to the indicated conditions.
(§2) The stability of each salt form was assessed by monitoring the post-exposure drug peak purity and by evaluating the post-exposure visual appearance of the salt. The samples were removed from the exposure conditions and allowed to equilibrate to ambient conditions for 15-20 mins. An appropriate amount of each sample was weighed for analysis and dissolved in diluent (deionized water containing 0.1% TFA) to obtain a stock concentration of 1 mg/mL. The stock solution was then diluted to 0.125 mg/mL in an HPLC vial using diluent and the samples were run on a Waters Acquity UPLC system using the parameters shown in Table 4.
We conducted thermostability studies of lanreotide acetate substantially as described in Example 6. These experiments confirmed that lanreotide acetate is […] when exposed to increasing temperature and humidity conditions over time (FIG. 45). […] (FIG. 45). This degree of thermal and humidity instability is disfavored for a pharmaceutical agent, particularly one intended for patient self-administration at home.
To determine whether a thermostable salt form of TBR-760 could be manufactured, a salt exchange was performed as described in Example 1 to generate bromide and chloride salts of TBR-760. Lanreotide bromide and lanreotide chloride salts were also generated and assessed for thermostability to evaluate the effect of the salt form on compound stability and to compare stability of lanreotide and TBR-760 of each salt.
UPLC assays performed as described in Example 6 were further used to determine the number of degradants—and thus the number of impurities—in each sample. Results showing the purity assessment of each sample following thermostability studies are shown in FIGS. 48A-48B (lanreotide and TBR-760 acetate salts), 49A-49B (lanreotide and TBR-760 bromide salts), and 50A-50B (lanreotide and TBR-760 chloride salts).

[2] = Photostability of alternative salt forms of lanreotide and TBR-760; conditions: 1.2 million lux hours visible light or 200 watt hours/square meter UV light
Source text: (§3) In order to evaluate the light sensitivity and stability of TBR-760 chimeric peptide salts, all five salt forms were exposed to ultraviolet (UV) and visible light according to International Council for Harmonisation of Technical Requirements for Pharmaceuticals for Human Use (ICH) guideline Q1B for photostability testing. In brief, a Caron 6540-1 photostability chamber unit with separate UV and light chambers was used for the studies. Visible light exposure was 1.2 million lux hours and UV exposure was 200 watt hours/square meter.
Photostability of lanreotide acetate, lanreotide bromide, lanreotide chloride, TBR-760 acetate, TBR-760 bromide and TBR760 chloride was tested according to the methods of Example 7. Four samples were prepared for each salt form: one control for each of the UV and visible light exposure conditions (controls isolated from light) and one sample for exposure to each of the UV and visible light conditions. For each sample, 2-5 mg of the salt was weighed into 3 mL clear serum vials and stoppered. Vials containing control samples were wrapped in aluminum foil.
Following exposure to visible and UV light, all lanreotide and TBR-760 salts were analyzed by UPLC as described in Example 7.

[3] = Solid state (thermolytic) stability of TBR-760 salt forms, open container, UPLC peak purity and appearance
Description: as §1, §2

[4] = Photostability of TBR-760 salt forms (ICH Q1B, visible and UV light), appearance and UPLC purity
Source text: as §3
Samples were placed in clear, sealed vials and stored in the appropriate chamber alongside dark controls in amber colored vials wrapped in aluminum foil. Control samples were stored in sealed amber vials at −20° C. The appearance of exposed samples was examined visually before being analyzed via UPLC.

[5] = Thermogravimetric analysis (TGA) of TBR-760 salt forms; conditions: ramp 5.0° C. per minute from 25 to 400° C.; listed as mesylate salt
Description: Thermogravimetric analyses (TGA) were performed on all TBR-760 salt forms to evaluate thermal stability of each salt form. Studies were performed using a TGA-Q500 thermogravimetric analyzer (TA Instruments). The weight of each compound was measured while the temperature was increased at a ramp rate of 5.0° C. per minute from 25 to 400° C. […] The weight loss may be indicative of loss of adsorbed moisture, entrained solvent or volatile impurities. Decomposition of the compound appears to start at about 234° C. (sulfate salt), 245° C. (chloride salt), 252° C. (tosylate salt), and 255° C. (mesylate salt). For the acetate salt, a further ˜5% loss of weight between 110° C. and 200° C. was observed, indicating loss of volatile acetate ions over that temperature range (FIG. 8).

[6] = listed as hydrobromide salt of TBR-760
[7] = 25° C. at 60% RH, open container
[8] = 40° C. at 75% RH, open container
[9] = UPLC peak purity, 25° C. at 60% RH, open container
[10] = UPLC peak purity, 40° C. at 75% RH, open container
[11] = UPLC peak purity, 60° C., open dish
[12] = listed as lanreotide hydrobromide

For CCCN1C[C@H](CSCC(=O)NCCCC[C@@H](NC(=O)CSC[C@@H]2C[C@@H]3c4cccc5[nH]cc(c45)C[C@H]3N(CCC)C2)C(=O)N[C@H]2CSSC[C@@H](C(=O)N[C@H](C(N)=O)[C@@H](C)O)NC(=O)[C@H](CC)NC(=O)[C@H](CCCCN)NC(=O)[C@@H](Cc3c[nH]c4ccccc34)NC(=O)[C@H](Cc3ccc(O)cc3)NC2=O)C[C@@H]2c3cccc4[nH]cc(c34)C[C@H]21 [TBR-760 bromide, Dop2-D-Lys(Dop2)-cyclo[Cys-Tyr-D-Trp-Lys-Abu-Cys]-Thr-NH2], the compound degraded [1] was “more than 23%”, the thermostability in words [1, 6] was “significantly degraded” and the “photostability in words (UPLC purity)” value [2] was “greater loss of purity than TBR-760 acetate or TBR-760 chloride”. For the same molecule, the “visible appearance after exposure to visible and UV light” value ([2]; versus control) was “did not visibly change” and the “photostability in words (UPLC purity)” value [2, 6] was “significantly degraded”.

For CCCN1C[C@H](CSCC(=O)NCCCC[C@@H](NC(=O)CSC[C@@H]2C[C@@H]3c4cccc5[nH]cc(c45)C[C@H]3N(CCC)C2)C(=O)N[C@H]2CSSC[C@@H](C(=O)N[C@H](C(N)=O)[C@@H](C)O)NC(=O)[C@H](CC)NC(=O)[C@H](CCCCN)NC(=O)[C@@H](Cc3c[nH]c4ccccc34)NC(=O)[C@H](Cc3ccc(O)cc3)NC2=O)C[C@@H]2c3cccc4[nH]cc(c34)C[C@H]21 [TBR-760 mesylate, Dop2-D-Lys(Dop2)-cyclo[Cys-Tyr-D-Trp-Lys-Abu-Cys]-Thr-NH2], the “Appearance, T = 2 wk” value [3, 7] was “White”, the “Appearance, T = 4 wk” value [3, 7] was “White” and the “Appearance, T = 3 d” value [3, 7] was “White”. For the same molecule, the “stability compared with the other salt forms” value ([3]; 40° C. at 75% RH and 60° C., 2 and 4 weeks) was “significantly more stable”, the “Appearance, T = 2 wk” value [3, 8] was “White” and the “Appearance, T = 4 wk” value [3, 8] was “White”. For the same molecule, the “Appearance, T = 3 d” value [3, 8] was “White”, the “Appearance, T = 2 wk” value ([3]; 60° C., open dish) was “White” and the “Appearance, T = 4 wk” value ([3]; 60° C., open dish) was “White”. For the same molecule, the “Appearance, T = 3 d” value ([3]; 60° C., open dish) was “White”, the “Purity, T = 2 wk” value [3, 9] was 98.14 and the “Purity, T = 4 wk” value [3, 9] was 97.77. The “Purity, T = 2 wk” value [3, 10] was 97.49, the “Purity, T = 4 wk” value [3, 10] was 97.35 and the “Purity, T = 2 wk” value [3, 11] was 97.56. The “Purity, T = 4 wk” value [3, 11] was 97.17, the “Purity, Control” value ([3]; UPLC peak purity, control, stored at -20° C.) was 98.39 and the “Appearance, Control” value ([3]; control, stored at -20° C.) was “White”. The “Purity, UV-exposed” value ([4]; UPLC, UV 200 watt hours/square meter, clear sealed vial) was 96.67, the “Purity, Control” value ([4]; UPLC, control in sealed amber vial at -20° C.) was 98.39 and the “Purity, Dark Ctrl-UV” value ([4]; UPLC, dark control in UV chamber) was 98.35. For the same molecule, the “Purity, Dark Crtl-Light” value ([4]; UPLC, dark control in visible light chamber) was 98.46, the “Purity, Light-exposed” value ([4]; UPLC, visible light 1.2 million lux hours, clear sealed vial) was 95.3 and the “Appearance, UV-exposed” value ([4]; UV 200 watt hours/square meter, clear sealed vial, listed as Mesylate) was “off-white”. The “Appearance, UV-exposed” value ([4]; UV 200 watt hours/square meter, clear sealed vial, listed as mesylate) was “white to off-white”, the “Appearance, Control” value ([4]; control in sealed amber vial at -20° C.) was “white” and the “Appearance, Dark Ctrl-UV” value ([4]; dark control in UV chamber, amber vial wrapped in aluminum foil) was “white”. The “Appearance, Dark Crtl-Light” value ([4]; dark control in visible light chamber, amber vial wrapped in aluminum foil) was “white”, the “degradation upon exposure to visible or UV light, in words” value ([4]; visible and UV light, UPLC) was “more resistant to degradation than TBR-760 acetate” and the “Appearance, Light-exposed” value ([4]; visible light 1.2 million lux hours, clear sealed vial, listed as Mesylate) was “off-white”. For the same molecule, the “Appearance, Light-exposed” value ([4]; visible light 1.2 million lux hours, clear sealed vial, listed as mesylate) was “white to off-white” and the “TGA start of decomposition” value [5] was ~255 °C.

For CC(C)[C@@H]1NC(=O)[C@H](CCCCN)NC(=O)[C@@H](Cc2c[nH]c3ccccc23)NC(=O)[C@H](Cc2ccc(O)cc2)NC(=O)[C@@H](NC(=O)[C@H](N)Cc2ccc3ccccc3c2)CSSC[C@@H](C(=O)N[C@H](C(N)=O)[C@@H](C)O)NC1=O [lanreotide acetate, lanreotide, reference compound], the thermostability in words [1] was “thermostable; also recorded: stable” and the “photostability in words (UPLC purity)” value [2] was “stable to both visible and UV light”.

For CC(C)[C@@H]1NC(=O)[C@H](CCCCN)NC(=O)[C@@H](Cc2c[nH]c3ccccc23)NC(=O)[C@H](Cc2ccc(O)cc2)NC(=O)[C@@H](NC(=O)[C@H](N)Cc2ccc3ccccc3c2)CSSC[C@@H](C(=O)N[C@H](C(N)=O)[C@@H](C)O)NC1=O [lanreotide bromide, lanreotide, reference compound], the compound degraded [1] was “more than 7%”, the thermostability in words [1, 12] was “moderately stable; also recorded: less stable than lanreotide acetate” and the “photostability in words (UPLC purity)” value [2, 12] was “moderately stable”.
